Like-named read-outs stand apart in the source and are kept apart here.
Tests used:
[1] = Cytotoxicity Determination (CCK-8, without addition of virus); assay type: cell-based; details: human, 50% cytotoxicity concentration (CC50)
Description: (§1) CPE reduction assays are performed as described by Sidwell and Huffman et al., Appl. Microbiol. (1971) 22(5):797-801 with slight modifications. HEp-2 cells (ATCC #, CCL-23) are seeded at a density of 1,500 cells/30 μl/well into the 384-well cell plate(s) (Corning #3701) one day prior to the assay. Compounds are added into 384-well cell plates by Labcyte POD 810 Plate Assembler system. Each of the test compounds is provided to duplicate wells of a 384-well cell plate at final concentrations starting from 100 μM or 1 μM using 1/3 stepwise dilutions for 9 points. Quick-thaw Respiratory Syncytial Virus (RSV) long strain (ATCC #VR-26) stock in a 37° C. water bath. Place on ice until ready to use. Viruses are diluted to the concentration of 100 TCID50/30 μL with medium and 30 μl diluted RSV are added into related wells of 384-well cell plates. For each plate, sixteen wells are set aside as uninfected, untreated cell controls (CC), and nine wells per test plate receive virus only as a control for virus replication (VC). The final DMSO concentration of all wells is 1%. Place the plates at 37° C., 5% CO2 for 5 days.
In order to determine the compound cytotoxicity, in parallel, each of the compounds is applied to duplicate wells in a 384-well cell plate at serial final concentrations starting from 100 μM using 1/2 stepwise dilutions for 7 points without addition of virus. Incubate the cells at 37° C., 5% CO2 for 5 days. Add 6 μL CCK-8 into each well and incubate in a CO2 incubator at 37° C. for 3-4 hours.

[2] = system: Respiratory Syncytial Virus (RSV) long strain; assay: microbe, parasite or virus in culture; assay type: cell-based; details: human respiratory syncytial virus, Tables A and B list compounds by EC50 band
Description: as §1
After 5 days incubation, observe the CPE of cells in all wells. […] Six μl of cell counting kit-8 reagent (CCK-8, Dojindo Molecular Technologies Inc., CK04-20) are added to each well, which allows colorimetric assays to determine the number of viable cells through the dehydrogenase activity detection. After 3-4 hour incubation, the absorbance of each well is measured with a spectrophotometric plate reader at 450 nm wavelength, using a 630 nm filter as background according to manufacturer's instruction.

recombinant RSV complex = recombinant RSV complex (Human respiratory syncytial virus A, UniProt P28887); assay: RSV Polymerase Inhibition Assay; assay type: biochemical
Description: Standard RSV polymerase assays were conducted in the presence of 10 nM recombinant RSV complex in a reaction buffer containing Tris-HCl pH7.5, 6 mM MgCl2, and other additives and substrates including RNA oligonucleotides and radionucleotides. Standard reactions were incubated in 96-well plate format for 2 h at 30° C., in the presence of increasing concentration of inhibitor. The reaction was stopped with 90 μL of 0.1M EDTA, and the reaction product was transferred to a “reading” 96-well plate. After washing of the plate, radiolabeled RNA products were detected according to standard procedures with a Trilux Topcount scintillation counter.

[3] = HEp-2, 120 h, read-out: 50% effective concentration (EC50), HEp-2 cells infected with RSV long strain, 5 days, CCK-8 readout
[4] = 120 h, read-out: 50% effective concentration (EC50), HEp-2 cells infected with RSV long strain, 5 days, CCK-8 readout

Sequence of recombinant RSV complex (P28887 whole entry): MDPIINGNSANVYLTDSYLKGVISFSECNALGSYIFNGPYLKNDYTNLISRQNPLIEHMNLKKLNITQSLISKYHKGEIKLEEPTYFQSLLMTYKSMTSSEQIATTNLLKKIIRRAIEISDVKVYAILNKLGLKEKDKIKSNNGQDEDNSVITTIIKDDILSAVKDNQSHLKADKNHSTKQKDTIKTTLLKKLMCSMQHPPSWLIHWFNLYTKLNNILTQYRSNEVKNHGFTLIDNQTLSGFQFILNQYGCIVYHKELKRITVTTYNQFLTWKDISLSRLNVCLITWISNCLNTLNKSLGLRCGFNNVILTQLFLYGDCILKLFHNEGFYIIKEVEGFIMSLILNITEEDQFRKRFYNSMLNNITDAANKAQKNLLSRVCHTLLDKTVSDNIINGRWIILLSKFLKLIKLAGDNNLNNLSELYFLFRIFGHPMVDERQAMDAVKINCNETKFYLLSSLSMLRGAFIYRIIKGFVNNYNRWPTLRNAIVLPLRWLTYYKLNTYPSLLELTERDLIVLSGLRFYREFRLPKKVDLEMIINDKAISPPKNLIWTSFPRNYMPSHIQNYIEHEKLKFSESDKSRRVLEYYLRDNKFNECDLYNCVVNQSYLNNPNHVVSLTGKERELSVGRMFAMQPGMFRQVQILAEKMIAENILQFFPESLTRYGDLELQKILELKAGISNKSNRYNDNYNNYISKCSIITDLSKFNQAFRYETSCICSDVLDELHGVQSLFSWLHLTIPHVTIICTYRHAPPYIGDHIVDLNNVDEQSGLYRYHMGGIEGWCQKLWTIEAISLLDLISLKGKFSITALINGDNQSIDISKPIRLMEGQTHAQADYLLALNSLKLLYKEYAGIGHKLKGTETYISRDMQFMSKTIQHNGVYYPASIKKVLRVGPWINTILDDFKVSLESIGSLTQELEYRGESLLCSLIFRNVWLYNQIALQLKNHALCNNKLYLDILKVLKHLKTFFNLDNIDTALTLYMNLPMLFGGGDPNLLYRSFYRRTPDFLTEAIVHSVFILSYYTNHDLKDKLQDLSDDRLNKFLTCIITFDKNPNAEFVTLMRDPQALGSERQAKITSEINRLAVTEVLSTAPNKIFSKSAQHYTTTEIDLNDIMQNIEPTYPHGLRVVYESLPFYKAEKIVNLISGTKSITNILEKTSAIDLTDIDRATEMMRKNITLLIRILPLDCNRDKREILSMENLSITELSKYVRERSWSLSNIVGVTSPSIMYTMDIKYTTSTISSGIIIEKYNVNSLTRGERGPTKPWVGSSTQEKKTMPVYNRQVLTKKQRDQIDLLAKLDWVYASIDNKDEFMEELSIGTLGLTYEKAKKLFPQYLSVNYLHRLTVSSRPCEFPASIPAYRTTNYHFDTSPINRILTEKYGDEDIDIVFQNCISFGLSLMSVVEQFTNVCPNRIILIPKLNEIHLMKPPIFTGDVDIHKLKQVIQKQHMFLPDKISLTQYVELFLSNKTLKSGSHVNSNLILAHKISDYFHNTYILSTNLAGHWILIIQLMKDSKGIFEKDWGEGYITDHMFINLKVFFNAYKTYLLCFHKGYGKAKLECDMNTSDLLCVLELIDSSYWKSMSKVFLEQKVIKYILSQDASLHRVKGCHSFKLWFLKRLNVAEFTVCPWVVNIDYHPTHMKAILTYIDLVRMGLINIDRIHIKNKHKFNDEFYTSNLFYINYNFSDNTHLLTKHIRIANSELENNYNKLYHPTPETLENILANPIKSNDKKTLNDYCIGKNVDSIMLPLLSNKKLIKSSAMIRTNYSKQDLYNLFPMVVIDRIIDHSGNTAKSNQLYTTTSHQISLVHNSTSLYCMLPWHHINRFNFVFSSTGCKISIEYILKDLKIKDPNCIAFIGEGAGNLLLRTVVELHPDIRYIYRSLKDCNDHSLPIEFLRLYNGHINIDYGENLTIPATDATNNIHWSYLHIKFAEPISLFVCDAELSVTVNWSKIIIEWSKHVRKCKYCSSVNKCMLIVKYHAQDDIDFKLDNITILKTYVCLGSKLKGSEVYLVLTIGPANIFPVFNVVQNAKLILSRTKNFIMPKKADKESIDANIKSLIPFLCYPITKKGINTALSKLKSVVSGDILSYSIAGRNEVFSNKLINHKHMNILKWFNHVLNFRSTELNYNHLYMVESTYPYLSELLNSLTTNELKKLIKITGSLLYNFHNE
Sequence of recombinant RSV complex (P03421 whole entry, further chain): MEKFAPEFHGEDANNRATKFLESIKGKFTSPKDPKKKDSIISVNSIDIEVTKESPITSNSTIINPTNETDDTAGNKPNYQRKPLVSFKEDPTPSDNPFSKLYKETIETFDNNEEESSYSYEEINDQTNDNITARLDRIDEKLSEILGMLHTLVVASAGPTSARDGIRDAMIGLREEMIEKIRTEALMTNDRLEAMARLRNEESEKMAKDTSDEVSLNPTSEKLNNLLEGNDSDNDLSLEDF

Row | Compound | CC50 at 5 days [1] | EC50 [2, 3] | IC50 (recombinant RSV complex) | EC50 [2, 4]
1 | COc1cc(C(=O)NCC(O)(CO)c2ccc(OC)c(-c3ccc(F)c(Cl)c3)n2)ccc1OC1CC1(F)F (stereo not drawn) [Compound 469] | 10 to 100 µM | < 1 µM | < 1 µM | –
2 | COc1cc(C(=O)NCC(=O)c2cc3c(c(-c4ccc(F)c(Cl)c4)n2)OCC3)ccc1OCCF [Compound 135] | > 100 µM | < 1 µM | < 100 µM | –
3 | COc1cc(C(=O)NCC(=O)c2cc3c(c(-c4ccc(F)c(Cl)c4)n2)OCC3C)ccc1OCCO (stereo not drawn) [Compound 305] | 10 to 100 µM | < 1 µM | < 1 µM | –
4 | COc1cc(C(=O)NCC(F)(F)c2ccc(OC)c(-c3ccc(F)c(Cl)c3)n2)ccc1OCCO [Compound 150] | > 100 µM | – | < 10 µM | 1 to 50 µM
5 | COc1cc(C(=O)NC[C@](O)(c2cc3c(c(-c4ccc(F)cc4)n2)OC[C@@]3(C)N)C(F)(F)F)ccc1OC[C@@H](C)O [Compound 632] | 10 to 100 µM | < 1 µM | < 1 µM | –
6 | COc1cc(C(=O)NC[C@](O)(c2cc3c(c(-c4ccc(F)cc4)n2)OCC3(N)CO)C(F)(F)F)ccc1OC1CC1 (stereo partly drawn) [Compound 654] | 10 to 100 µM | < 1 µM | < 1 µM | –
7 | CC(C)(N)c1cc(-c2ccc(F)c(Cl)c2)nc(C(O)(CNC(=O)c2cscn2)C(F)(F)F)c1 (stereo not drawn) [Compound 277] | 10 to 100 µM | 1 to 50 µM | < 10 µM | –
8 | COc1cc(C(=O)NCC(C)(O)c2cc3c(c(-c4ccc(F)c(Cl)c4)n2)OCC3(C)O)ccc1OC1CC1 (stereo not drawn) [Compound 475] | 10 to 100 µM | < 1 µM | < 1 µM | –
9 | COc1cc(C(=O)NCC(F)(CF)c2ccc(OC)c(-c3ccc(F)c(Cl)c3)n2)ccc1OCCO (stereo not drawn) [Compound 435] | 10 to 100 µM | < 1 µM | < 1 µM | –
10 | CCc1cc(-c2ccc(F)c(Cl)c2)nc(C(C)(O)CNC(=O)c2ccc(OCC(F)F)c(OC)c2)c1 (stereo not drawn) [Compound 440] | 10 to 100 µM | – | < 1 µM | 1 to 50 µM
11 | COc1cc(C(=O)NCC(C)(C)c2ccc(OC)c(-c3ccc(F)c(Cl)c3)n2)ccc1OCCO [Compound 368] | 10 to 100 µM | < 1 µM | < 100 µM | –
12 | COc1cc(C(=O)NCC(O)(c2ccc(OC)c(-c3ccc(F)c(Cl)c3)n2)C(F)(F)F)ccc1OC1CCCC1 (stereo not drawn) [Compound 236] | > 100 µM | 1 to 50 µM | < 1 µM | –
13 | COc1ccc(C(O)(CNC(=O)c2ccc3c(c2)[nH]c(=O)n3C)C(F)(F)F)nc1-c1ccc(F)c(Cl)c1 (stereo not drawn) [Compound 268] | 10 to 100 µM | 1 to 50 µM | < 10 µM | –
14 | COc1cc(C(=O)NCC(O)(c2cc3c(c(-c4ccc(F)c(Cl)c4)n2)OCC3(C)C)C(F)(F)F)ccc1OCC(N)=O (stereo not drawn) [Compound 210] | 10 to 100 µM | – | < 1 µM | < 1 µM
15 | COc1cc(C(=O)NCC(O)(c2cc(C(C)(C)N)cc(-c3ccc(F)c(Cl)c3)n2)C(F)(F)F)ccc1O[C@@H]1CCNC1=O (stereo partly drawn) [Compound 285] | 10 to 100 µM | < 1 µM | < 1 µM | –
16 | COc1cc(C(=O)NC[C@@](O)(c2cc(C(C)(C)N)cc(-c3ccc(F)cc3)n2)C(F)(F)F)ccc1OC1CC1 [Compound 495] | 10 to 100 µM | < 1 µM | < 1 µM | –

Row | Compound | CC50 at 5 days [1] | EC50 [2, 3] | IC50 (recombinant RSV complex) | EC50 [2, 4]
17 | COc1cc(C(=O)NCC(C)(O)c2cc(CO)cc(-c3ccc(F)c(Cl)c3)n2)ccc1OCC1CC1 (stereo not drawn) [Compound 101] | 10 to 100 µM | < 1 µM | < 1 µM | –
18 | COc1ccc(C(O)(CNC(=O)c2ccc3c(c2)NC(=O)CO3)C(F)(F)F)nc1-c1ccc(F)c(Cl)c1 (stereo not drawn) [Compound 258] | 10 to 100 µM | < 1 µM | < 1 µM | –
19 | COc1ccc(C(O)(CNC(=O)c2ccc3ncn(C)c3c2)C(F)(F)F)nc1-c1ccc(F)c(Cl)c1 (stereo not drawn) [Compound 264] | 10 to 100 µM | 1 to 50 µM | < 1 µM | –
20 | COc1cc(C(=O)NCC(O)(c2cc(CO)cc(-c3ccc(F)c(Cl)c3)n2)C(F)(F)F)ccc1OC1CC1 (stereo not drawn) [Compound 465] | 10 to 100 µM | < 1 µM | < 1 µM | –
21 | COc1cc(C(=O)NC[C@@](O)(c2cc3c(c(-c4ccc(C#N)cc4)n2)OC[C@]3(C)N)C(F)(F)F)ccc1OCCO [Compound 604b] | > 100 µM | 1 to 50 µM | < 10 µM | –
22 | COc1cc(C(=O)NCC(O)(c2cc(C(C)(N)CO)cc(-c3ccc(F)cc3)n2)C(F)(F)F)ccc1OCCO (stereo not drawn) [Compound 484] | > 100 µM | 1 to 50 µM | < 10 µM | –
23 | COc1cc(C(=O)NCC(O)(c2cc3c(c(-c4c[nH]c5c(F)cccc45)n2)OCC3)C2CC2)ccc1OCCO (stereo not drawn) [Compound 297] | 10 to 100 µM | < 1 µM | < 1 µM | –
24 | CC1(C)COc2c1cc(C(O)(CNC(=O)c1cc(O)c3ncccc3c1)C(F)(F)F)nc2-c1ccc(F)c(Cl)c1 (stereo not drawn) [Compound 207] | 10 to 100 µM | 1 to 50 µM | < 1 µM | –
25 | COc1cc(C(=O)NCC(O)c2ccc3c(n2)-c2c(sc4c(F)cccc24)CO3)ccc1OCCO (stereo not drawn) [Compound 161] | 10 to 100 µM | 1 to 50 µM | < 100 µM | –
26 | COc1cc(C(=O)NCC(O)(c2ccc(OC)c(-c3ccc(F)c(Cl)c3)n2)C(F)(F)F)ccc1OC1CCOC1 (stereo not drawn) [Compound 235] | 10 to 100 µM | < 1 µM | < 1 µM | –
27 | COc1cc(C(=O)NCC(O)(c2cc(C(N)=O)cc(-c3ccc(F)c(Cl)c3)n2)C(F)(F)F)ccc1OC1CC1 (stereo not drawn) [Compound 464] | 10 to 100 µM | < 1 µM | < 1 µM | –
28 | COc1cc(C(=O)NCC(C)(O)c2ncc(OC)c(-c3ccc(F)c(Cl)c3)n2)ccc1OCCO (stereo not drawn) [Compound 109] | > 100 µM | 1 to 50 µM | < 10 µM | –
29 | COCC(C)(NC(C)=O)c1cc(-c2ccc(F)c(Cl)c2)nc(C(O)(CNC(=O)c2ccc(OC3CC3)c(OC)c2)C(F)(F)F)c1 (stereo not drawn) [Compound 537] | 10 to 100 µM | < 1 µM | < 1 µM | –
30 | COc1ccc(C(O)(CNC(=O)c2ccc(OCCO)c(Cl)c2)C(F)(F)F)nc1-c1ccc(F)c(Cl)c1 (stereo not drawn) [Compound 262] | 10 to 100 µM | < 1 µM | < 1 µM | –
31 | COc1cc(C(=O)NCC(O)(c2cc3c(c(-c4ccc(F)cc4)n2)OCC3(N)C(C)C)C(F)(F)F)ccc1OCCO (stereo not drawn) [Compound 565] | 10 to 100 µM | < 1 µM | < 1 µM | –
32 | COc1cc(C(=O)NCC(O)(c2ccc(OCCN)c(-c3ccc(F)cc3)n2)C(F)(F)F)ccc1OC1CC1 (stereo not drawn) [Compound 479] | 10 to 100 µM | < 1 µM | < 1 µM | –

Reference: patent US11021444B2, “Antiviral compounds” (priority 2013, dated 2021)
